For nine compounds, IC50 results are on record in patent US9745341B2, “Tubulysins and processes for preparing” (priority 2007, dated 2017).

pIC50: −log10 of the molar value.

In one data set the test system is folate receptor-positive KB cells. The data set can be described thus: In vitro concentration-dependent cytotoxic activity (3H-thymidine incorporation). Type of data set: cell-based. Particulars: Homo sapiens, KB, read-out: Cytotoxicity IC50 (nM). As for the experimental part:
The compounds described herein are evaluated using an in vitro cytotoxicity assay that predicts the ability of the drug to inhibit the growth of folate receptor-positive KB cells. The KB cells are exposed for up to 7 h at 37° C. over a range of concentrations of folate-drug conjugate in the absence or presence of at least a 100-fold excess of folic acid. The cells are then rinsed once with fresh culture medium and incubated in fresh culture medium for 72 hours at 37° C. Cell viability is assessed using a ^3H-thymidine incorporation assay.
Cells were heavily seeded in 24-well Falcon plates and allowed to form nearly confluent monolayers overnight. Thirty minutes prior to the addition of test article, spent medium was aspirated from all wells and replaced with fresh folate-free RPMI (FFRPMI). Note, designated wells received media containing 100 μM folic acid; and, cells within the latter wells were used to determine the targeting specificity, since cytotoxic activity produced in the presence of excess folic acid (enables competition for FR binding) would signify the portion of the total activity that was unrelated to FR-specific delivery. Following one rinse with 1 mL of fresh FFRPMI containing 10% heat-inactivated fetal calf serum, each well received 1 mL of media containing increasing concentrations of test article (4 wells per sample) in the presence or absence of 100 μM free folic acid (a binding site competitor). Treated cells were pulsed for 2 h at 37° C., rinsed 4 times with 0.5 mL of media, and then chased in 1 mL of fresh media up to 70 h. Spent media was aspirated from all wells and replaced with fresh media containing 5 μCi/mL ^3H-thymidine. Following a further 2 h 37° C. incubation, cells were washed 3 times with 0.5 mL of PBS and then treated with 0.5 mL of ice-cold 5% trichloroacetic acid per well. After 15 min, the trichloroacetic acid was aspirated and the cell material solubilized by the addition of 0.5 mL of 0.25 N sodium hydroxide for 15 min. Four hundred and fifty μL of each solubilized sample were transferred to scintillation vials containing 3 mL of Ecolume scintillation cocktail and then counted in a liquid scintillation counter. Final results are expressed as the percentage of ^3H-thymidine incorporation relative to untreated controls.
As shown in the following table, dose-dependent cytotoxicity is measurable, and in most cases, the IC50 values (concentration of drug conjugate required to reduce ^3H-thymidine incorporation into newly synthesized DNA by 50%) are in the low nanomolar range.
A word on the IC50: it is the concentration needed to halve the response being measured. Turning to `CCC(C)[C@H](NC(=O)[C@H]1CCCCN1C)C(=O)N(COCCO)[C@H](C[C@@H](OC(C)=O)c1nc(C(=O)N[C@@H](Cc2ccc(O)cc2)C[C@H](C)C(=O)O)cs1)C(C)C` (stereo partly drawn) [EC0346, 2-Hydroxyethoxy Tubulysin], the IC50 came out at 18 nM. On to `CCC(C)[C@H](NC(=O)[C@H]1CCCCN1C)C(=O)N(COC)[C@H](C[C@@H](OC(C)=O)c1nc(C(=O)N[C@@H](Cc2ccc(O)cc2)C[C@H](C)C(=O)O)cs1)C(C)C` (stereo partly drawn) [EC0313, Methoxy Tubulysin], for which the IC50 was determined as 9 nM. The same measure, in the same setting: in the case of `CCC(C)[C@H](NC(=O)[C@H]1CCCCN1C)C(=O)N(CSCCS)[C@H](C[C@@H](OC(C)=O)c1nc(C(=O)N[C@@H](Cc2ccc(O)cc2)C[C@H](C)C(=O)O)cs1)C(C)C` (stereo partly drawn) [EC0374, 2-Mercaptoethylthio Tubulysin] it was 24 nM; in that of `CCCSCN(C(=O)[C@@H](NC(=O)[C@H]1CCCCN1C)C(C)CC)[C@H](C[C@@H](OC(C)=O)c1nc(C(=O)N[C@@H](Cc2ccc(O)cc2)C[C@H](C)C(=O)O)cs1)C(C)C` (stereo partly drawn) [EC0623], 0.48 nM; in that of `CCC(C)[C@H](NC(=O)[C@H]1CCCCN1C)C(=O)N(COCCC(C)C)[C@H](C[C@@H](OC(C)=O)c1nc(C(=O)N[C@@H](Cc2ccc(O)cc2)C[C@H](C)C(=O)O)cs1)C(C)C` (stereo partly drawn) [EC0356], 12 nM. Still for that read-out and setting: in the case of `C=CCCN(C(=O)[C@@H](NC(=O)[C@H]1CCCCN1C)C(C)CC)[C@H](C[C@@H](OC(C)=O)c1nc(C(=O)N[C@@H](Cc2ccc(O)cc2)C[C@H](C)C(=O)O)cs1)C(C)C` (stereo partly drawn) [EC0550, N-Homoallyl Tubulysin] it was 2 nM.

For the compound `CCC(C)[C@H](NC(=O)[C@H]1CCCCN1C)C(=O)N(CO)[C@H](C[C@@H](OC(C)=O)c1nc(C(=O)N[C@@H](Cc2ccc(O)cc2)C[C@H](C)C(=O)O)cs1)C(C)C` (stereo partly drawn) [EC0386], the half-maximal inhibitory concentration (IC50) came to 42 nM.

Still in this data set, the particulars now being: concentration required to reduce 3H-thymidine incorporation into newly synthesized DNA by 50%; 2 h pulse at 37° C., chase up to 70 h; read-out: Cytotoxicity IC50.
What is called pIC50 is −log10 of the IC50, conventionally taken in molar units. On to Tubulysin B [reference compound], for which the negative-log IC50 (pIC50) was 8.59. Still for that read-out and setting: next, `CC[C@H](C)[C@H](NC(=O)[C@H]1CCCCN1C)C(=O)N(COC(=O)CC(C)C)[C@H](C[C@@H](OC(C)=O)c1nc(C(=O)N[C@@H](Cc2ccc(O)cc2)C[C@H](C)C(=O)O)cs1)C(C)C` [Tubulysin A, reference compound]: 8.70.
